Consider 2 molecules from patent US9421237B2, “Tripeptide boronic acid or boronic ester, preparative method and use thereof” (PEKING UNIVERSITY, priority 2009, dated 2016).

In data set [1] the test system is HL-60, BXPC-3, U266 and BGC-823 cells. The data set is described as follows: In vitro anti-tumor activity (IC50), summary over the four tumor cell lines. Type of data set: cell-based. The text has this: According to the results of aforementioned preliminary anti-tumor activities screening tests, those compounds which have better anti-tumor activities were selected to measure their IC50 values on four types of tumor cell lines: HL-60 (promyelocytic leukemia cell strain), BXPC-3 (human pancreatic cancer cell strain), U266 (multiple myeloma cell strain) and BGC-823 (human gastric carcinoma cell strain). HL-60, BXPC-3 and U266 were obtained from the American Type Culture Collection (Manassas, Va.), and BGC-823 (human gastric carcinoma cell strain) was obtained from China Pharmaceutical University.
Test methods: HL-60 cells were cultured in IMDM medium containing 20% fetal bovine serum at 37° C. in 5% CO2; BGC-823 cells and BXPC-3 cells were cultured in RPMI1640 medium containing 10% fetal bovine serum at 37° C. in 5% CO2; U266 cells were cultured in RPMI1640 medium containing 15% fetal bovine serum at 37° C. in 5% CO2.
The cell growth was measured by the standard MTT method. […] The precipitates were dissolved in 100 μL of DMSO, and absorbance was read with an Infinite M200 (Tecan, Austria) microplate reader at 540 nm.
The result was expressed as IC50 value, which is the average value of three independent determinations.

The target in data set [2] is T1, 20S proteasome extracted from rat liver, chymotryptic-like (CT-L) activity (Rattus norvegicus, UniProt P18421+P28075).
T1 construct: 20S proteasome extracted from rat liver; from tissue; host or cells: rat liver
The data set is described as follows: Proteasome inhibition, chymotryptic-like (CT-L) activity, fluorescent peptide Suc-leu-leu-Val-Tyr-AMC. The format is biochemical. As to conditions: rat liver 20S proteasome, 37° C., 1 h. Summed up: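 Rat liver 20S proteasome (1 μg) incubated 1 h at 37° C with compounds and 50 μM Suc-Leu-Leu-Val-Tyr-AMC in 20 mM Tris-HCl.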

Data set [3] concerns the target T2, 20S proteasome extracted from rat liver, trypsin-like (TL) activity (Rattus norvegicus, UniProt P40112+Q9JHW0).
T2 construct: 20S proteasome extracted from rat liver; from tissue; host or cells: rat liver
The data set is described as follows: Proteasome inhibition, trypsin-like (TL) activity, fluorescent peptide Z-Ala-Arg-Arg-AMC. As to conditions: rat liver 20S proteasome, 37° C., 1 h; read-out: T-L (IC50). The format is biochemical. The procedure, abridged: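 Rat liver 20S proteasome (1 μg) incubated 1 h at 37 °C with compounds, 50 μM fluorogenic peptide and 20 mM Tris-HCl. AMC release read at 380/440 nm and βNA release at 335/410 nm. Inhibition rate calculated against a 0.1% DMSO solvent control.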

`CC(C)C[C@H](NC(=O)[C@H](Cc1ccc2ccccc2c1)NC(=O)[C@H](CC(C)C)NC(=O)c1cnccn1)B(O)O` [Compound 6f, N-pyrazineformyl-L-leucyl-L-naphthylalanyl-L-leucine Boronic Acid]: the melting point lay in the range of 157 to 159 °C. The “Inhibition of growth of three types of cells, compared with PS341” value in data set [1] was “better than those of PS341”. The molecule further came in with an IC50 in data set [2] of 0.079 ± 0.011 nM. The half-maximal inhibitory concentration (IC50) in data set [3] is greater than 20 nM.

On to `CC(C)C[C@H](NC(=O)[C@H](Cc1ccc2ccccc2c1)NC(=O)[C@H](Cc1ccccc1)NC(=O)c1cnccn1)B(O)O` [Compound 6g, N-pyrazineformyl-L-phenylalanyl-L-naphthylalanyl-L-leucine Boronic Acid], for which the concentration for half-maximal inhibition (IC50) was 0.111 ± 0.05 nM in data set [2] and greater than 20 nM in data set [3].
